Here are results for 5 compounds from patent US10058570B2 (priority 2007, dated 2018).

Data set [1] relates to lipopolysaccharide-induced septic shock. Format: in vivo, mouse.
The test system of data set [2] is developing type II collagen arthritis.
Data set [3] has as its system formalin-induced hind paw licking. Format: in vivo, mouse. As to conditions: for Hind paw licking time (Seconds) (Mean ± SEM): IP, mean (X).
Data set [4] has as its system acetic acid-induced writhing responses. As to conditions: mouse, in vivo.
The test system of data set [5] is LPS-induced neutrophilia in lung tissues. As to conditions: mouse, in vivo.
For data set [6], the system named is reaction of host lymphocytes to alloantigen. The note with it: mouse, in vivo, 10 mg/kg.
In data set [7] the test system is MRMT-1 tumor-induced bone osteolysis. As to conditions: rat, in vivo.
[8] abbreviates: sodium meta arsenite study, oral QD, 0.075 mg/kg.
The mark [9] stands for this setting: arsenic trioxide study, IP 10 mg/kg.
[10] abbreviates: arsenic trioxide study, IP, QD, 10 mg/kg.

Values joined by “and” are separate entries in the source; they are usually repeats but may differ in a detail not shown here. Identical values can stand only once. Like-named read-outs stand apart in the source and are kept apart here. Marks after values point to notes of the source that are not given here.

As to `CC(=O)OCC(=O)[C@@]1(O)[C@H](C)C[C@H]2[C@@H]3CCC4=CC(=O)C=C[C@]4(C)[C@@]3(F)[C@@H](O)C[C@@]21C` [Dexamehasone 21-acetate, reference compound], the “% Protection” value in data set [1] (PO 3 mg/kg, mortality over 3 days after LPS 30 mg/kg IP) is recorded as “(75) %”.
Regarding `CN(Cc1cnc2nc(N)nc(N)c2n1)c1ccc(C(=O)N[C@@H](CCC(=O)O)C(=O)O)cc1` [MTX, methotrexate, reference compound], the “Relative spleen weights, reduction as compared to disease control rats” value in data set [2] (rat, in vivo, po, 0.075 mg/kg) was 10%. Besides, the “inhibition of ankle diameter” value in data set [2] (sodium meta arsenite study, oral 0.075 mg/kg, days 10-17) was “Significant inhibition”. Moreover, the “inhibition of body weight loss (due to arthritis)” value in data set [2] (sodium meta arsenite study, oral QD days 0-16, 0.075 mg/kg) turned out to be 96%. Further, in data set [2] (setting [8]), the “Inhibition of ankle diameter (AUC)” value was found to be 97%, the “Inhibition of final paw weight” value worked out at 95%, the “inhibition of ankle histopathology parameters” value was 97% and the “inhibition of knee histopathologic parameters” value is 100%. In the data set on adjuvant arthritis (PO 0.1 mg/kg), the “Inhibition of body weight loss from day zero” value worked out at 91%; the “Relative liver weights, reduction toward normal” value was determined as 100%; the “inhibition of ankle diameter AUC increase” value is 96%; the “inhibition of ankle measurements (dorsal to ventral)” value (“inhibition of ankle measurements” for short) worked out at 97%. Also, in the data set on adjuvant arthritis (PO 0.1 mg/kg), the “inhibition of final paw weight increase due to arthritis” value amounted to 99%, the “inhibition of histopathologic bone resorption” value is 100%, the “inhibition of histopathologic inflammation” value is given as 99% and the “inhibition of lymphoid atrophy” value turned out to be 50%. Also, the “inhibition of splenic inflammation” value in the data set with adjuvant arthritis (PO 0.1 mg/kg) came out at 100%. The “inhibition of ankle diameter increase” value with adjuvant arthritis (PO 0.1 mg/kg, significant days 8-14) is given as “Significant inhibition”. Further, the “Mean body weight decrease over time (due to arthritis)” value in the data set with adjuvant arthritis (PO 0.1 mg/kg, significant days 10-14) is on record as “inhibited”. Also, the “Relative spleen weights, reduction toward normal” value with adjuvant arthritis (PO 0.01) is reported as 77%.
Take `CN1CC[C@]23c4c5ccc(O)c4O[C@H]2[C@@H](O)C=C[C@H]3[C@H]1C5` [Morphine, morphine, reference compound]: the analgesic effect entry in data set [3] (mouse, in vivo) was “associated with analgesic effect”; in data set [3] (mouse, in vivo, po, 30 mg/kg), “significant analgesic effect”.
On to `O=[As][O-].[Na+]` [sodium meta arsenite, sodium meta arsenite (NaAsO2)], for which, in data set [3] (mouse, in vivo), the analgesic activity result is listed as “significant analgesic activity”. Moreover, the analgesic effect entry in data set [4] was “no analgesic effect”. In data set [4] (po, 10 mg/kg), the analgesic activity entry was “significant analgesic activity” and the “number of writhing responses (average)” value is given as 7 writhing events. Further, in data set [1] (mouse, in vivo), the IL-1β secretion result is given as “significant inhibition”, the IL-6 secretion result is recorded as “inhibition” and the “protection against LPS-induced septic shock” value was “moderate protection”. For the same compound, in data set [1] (mouse, in vivo, po), the “secretion of KC” value was “no effect”, the “secretion of MCP-1” value is “no effect” and the “secretion of TNF-α” value is reported as “no effect”. In data set [5], the “KC in lavage fluid” value was “significant reduction”, the “TNF-α in lavage fluid” value was “significant suppression”, the “cell counts in lavage fluid” value is “not associated with any significant changes” and the “monocyte count in lavage fluid” value is “significant decrease”. In data set [5], the “neutrophil (differential) count in lavage fluid” value was “significant decrease”; the “secretion of 1L-1β, Il-6 or MCP-1 observed in brachoaveolar lavage fluid” value is reported as “At no concentration”; the “white blood cell (total) count in lavage fluid” value is given as “significant decrease”. Also, the “immunosuppressive effect in animals treated with alloantigen” value in data set [6] is recorded as “slight immunosuppressive effect”. For the same compound, in data set [7], the “ameliorating tumor-induced osteoclasts and osteolysis” value is recorded as “strong positive trend”; the “improving the various aspects of cancer-induced bone damage (histopathology)” value was “positive trend”. Besides, in data set [2] (rat, in vivo), the “inhibition of body weight loss (due to arthritis)” value is listed as 100%. Further, the “Relative thymus weights, reduction as compared to disease controls” value in data set [2] (rat, in vivo, 1 mg/kg) was 20%. In data set [2] (rat, in vivo, po), the “Calculated ED50 value, ankle diameter (AUC)” value is on record as 8.499 mg/kg; the “Calculated ED50 value, ankle histopathology” value was 7.080 mg/kg; the “Calculated ED50 value, body weight loss” value is recorded as 1.929 mg/kg; the “Calculated ED50 value, final paw weight” value is listed as 7.116 mg/kg. In addition, in data set [2] (rat, in vivo, po), the “Calculated ED50 value, knee histopathology” value is reported as 7.924 mg/kg. Besides, in data set [2] (rat, in vivo, po, 10 mg/kg), the “Inhibition of ankle diameter (AUC)” value is 73%; the “Inhibition of ankle diameter AUC” value came to 66%; the “Inhibition of final paw weight” value was 83% and 69%; the “Relative liver weights, increase above arthritic controls” value came out at 14%. For the same compound, in data set [2] (rat, in vivo, po, 10 mg/kg), the “Relative liver weights, increase over disease controls” value was 17%; the “Relative spleen weights, reduction as compared to disease control rats” value worked out at 10%; the “inhibition of ankle diameter” value is “Significant inhibition”; the “inhibition of ankle histopathology parameters” value stood at 85%. Further, in data set [2] (rat, in vivo, po, 10 mg/kg), the “inhibition of body weight loss” value amounted to 85%, the “inhibition of decrease in ankle diameter” value is reported as “Significant inhibition” and the “inhibition of knee histopathologic parameters” value is reported as 87%. For the same compound, in the data set on adjuvant arthritis (rat, in vivo), the “Inhibition of body weight loss from day 0” value is 2-14%; the “Relative liver weights, reduction” value is listed as 7-29%; the tolerability entry is on record as “well tolerated”. In the data set on adjuvant arthritis (rat, in vivo, po), the “Calculated ED50, ankle diameter AUC” value is 10.62 mg/kg; the “Calculated ED50, ankle measurements (dorsal to ventral)” value is recorded as 13.65 mg/kg; the “Calculated ED50, final paw weight” value is 1421 mg/kg; the “Calculated ED50, histopathologic bone resorption” value is listed as 9.243 mg/kg. For the same compound, in the data set with adjuvant arthritis (rat, in vivo, po), the “Calculated ED50, histopathologic inflammation” value is on record as 17.25 mg/kg; the “inhibition of histopathologic inflammation” value is 76%; the “inhibition of lymphoid atrophy” value stood at 29%; the “inhibition of splenic inflammation” value worked out at 32%. Further, in the data set with adjuvant arthritis (rat, in vivo, po, 3 mg/kg), the “inhibition of ankle diameter increase” value is given as “Significant inhibition”. Moreover, in the data set with adjuvant arthritis (rat, in vivo, po, 10 mg/kg), the “Relative spleen weights, reduction toward normal” value is reported as 50%; the “inhibition of ankle diameter AUC increase” value amounted to 46%; the “inhibition of ankle diameter increase” value is “Significant inhibition”; the “inhibition of ankle measurements” value was 36%. Besides, in the data set on adjuvant arthritis (rat, in vivo, po, 10 mg/kg), the “inhibition of final paw weight increase due to arthritis” value stood at 28%, the “inhibition of histopathologic bone resorption” value was determined as 59% and the “inhibition of histopathologic inflammation” value came to 24%. In addition, in the data set on adjuvant arthritis (rat, in vivo, po, 30 mg/kg), the “Mean body weight loss over time” value is “significantly increased”; the “Relative spleen weights, reduction toward normal” value turned out to be 91%; the “inhibition of ankle diameter AUC increase” value came to 83%; the “inhibition of ankle diameter increase” value was “Significant inhibition”. In the data set with adjuvant arthritis (rat, in vivo, po, 30 mg/kg), the “inhibition of ankle measurements” value stood at 81%, the “inhibition of final paw weight increase due to arthritis” value is listed as 83%, the “inhibition of histopathologic bone resorption” value was 81% and the “inhibition of lymphoid atrophy” value was 39%. In the data set with adjuvant arthritis (rat, in vivo, po, 30 mg/kg), the “inhibition of splenic inflammation” value was determined as 89% and the “toxicity (based on body weight changes)” value was “toxic”.
As for arsenic trioxide (As2O3), the “Hind paw licking time (Seconds) (Mean ± SEM)” value was 74.6 s in data set [3] (1 mg/kg, 0-5 minutes after formalin); 2.6* Seconds in data set [3] (1 mg/kg, 5-10 minutes after formalin); 15.6* Seconds in data set [3] (1 mg/kg, 10-15 minutes after formalin); 40.0 s in data set [3] (1 mg/kg, 15-20 minutes after formalin); 57.1 s in data set [3] (1 mg/kg, 20-25 minutes after formalin); 53.5 s in data set [3] (1 mg/kg, 25-30 minutes after formalin). For the same compound, the “Hind paw licking time (Seconds) (Mean ± SEM)” value is 30.0 s in data set [3] (1 mg/kg, 30-35 minutes after formalin); 9.0* Seconds in data set [3] (10 mg/kg, 0-5 minutes after formalin); 0.3* Seconds in data set [3] (10 mg/kg, 5-10 minutes after formalin); 0.0* Seconds in data set [3] (10 mg/kg, 10-15 minutes after formalin); 0.0* Seconds in data set [3] (10 mg/kg, 15-20 minutes after formalin); 0.0* Seconds in data set [3] (10 mg/kg, 20-25 minutes after formalin). Moreover, the “Hind paw licking time (Seconds) (Mean ± SEM)” value was 0.0* Seconds in data set [3] (10 mg/kg, 25-30 minutes after formalin) and 0.0 s in data set [3] (10 mg/kg, 30-35 minutes after formalin). In addition, the “inhibition of the licking response to formalin challenge” value in data set [3] (intraperitoneal, 10 mg/kg, intervals 0-5, 5-10, 10-15, 15-20, 20-25 and 25-30 minutes) is “significant inhibition”. For the same compound, the “response (inhibition of licking) to formalin challenge” value in data set [3] (intraperitoneal, lower dose 1 mg/kg) was “limited to the intervals of 5-10 and 10-15 minutes after challenge”. Besides, the Relative thymus weights result in data set [2] (arsenic trioxide study, 10 mg/kg) is reported as “reduced below arthritic controls”. Besides, the “Relative liver weights, increase above arthritic controls” value is reported as 6% in data set [2] (arsenic trioxide study, IP 1 mg/kg) and 10% in data set [2] (setting [9]). Further, the “Relative spleen weights, reduction as compared to disease control rats” value in data set [2] (setting [9]) turned out to be 21%. Moreover, the “inhibition of decrease in ankle diameter” value in data set [2] (arsenic trioxide study, IP 10 mg/kg, days 10-17) was “Significant inhibition”. The “Inhibition of ankle diameter AUC” value in data set [2] (setting [10]) is given as 80%. In data set [2] (setting [10]), the “Inhibition of final paw weight” value worked out at 71%. Moreover, in data set [2] (setting [10]), the “inhibition of body weight loss” value turned out to be 55%.
